Counter-ions that a name gives are not always drawn.
What was measured:
PDE9 = target: T1, PDE9 (Homo sapiens, UniProt O76083); assay: PDE9-inhibiting activity (SPA, 3H-cGMP degradation); type: biochemical; conditions: PDE9-inhibiting activity (IC50 values), cGMP 1 μM, 30° C.
T1 construct: made in house
Procedure: The PDE9 used in the present experiment was expressed/purified by the method as in, for example, Guipponi et al., and Fisher et., al. (Fisher, D. A., et al., J. Biol. Chem., 273: pp. 15559-15564 (1998), Guipponi, M., et al., Hum. Genet., 103: pp. 386-392 (1998)).
(2) Evaluation of PDE9-Inhibiting Activity
The PDE9-inhibiting activity was measured by the following method. That is, to a buffer solution containing tris(hydroxymethyl)aminomethane-hydrochloric acid (40 mM, pH 8.0), magnesium chloride (5 mM), and 2-mercaptoethanol (4 mM) were added cGMP (1 μM) and ^3H-cGMP (0.33 μCi/ml) to give a substrate buffer solution. A test substance solution and an enzyme solution which had been adjusted to an optimal concentration were added thereto to perform a reaction at 30° C. The enzyme reaction was stopped by the addition of Scintillation Proximity Assay (SPA) Beads (Perkin Elmer, USA) containing 5 mM 3-isobutyl-1-methylxanthine (IBMX). For the enzyme activity, the amount of 5′-GMP, which is a reaction degradation product bound to SPA beads, was measured with a TopCount microplate reader (Hewlett Packard, USA).
The inhibitory rate was calculated by taking the radioactivity of the control containing no test substance as (A), taking the radioactivity of the blank containing no enzyme as (B), and taking the radioactivity of the test substance as (C), and using the following equation. Inhibitory rate=100−{(C)−(B)/(A)−(B)}×100(%)

T1 sequence (O76083 whole entry): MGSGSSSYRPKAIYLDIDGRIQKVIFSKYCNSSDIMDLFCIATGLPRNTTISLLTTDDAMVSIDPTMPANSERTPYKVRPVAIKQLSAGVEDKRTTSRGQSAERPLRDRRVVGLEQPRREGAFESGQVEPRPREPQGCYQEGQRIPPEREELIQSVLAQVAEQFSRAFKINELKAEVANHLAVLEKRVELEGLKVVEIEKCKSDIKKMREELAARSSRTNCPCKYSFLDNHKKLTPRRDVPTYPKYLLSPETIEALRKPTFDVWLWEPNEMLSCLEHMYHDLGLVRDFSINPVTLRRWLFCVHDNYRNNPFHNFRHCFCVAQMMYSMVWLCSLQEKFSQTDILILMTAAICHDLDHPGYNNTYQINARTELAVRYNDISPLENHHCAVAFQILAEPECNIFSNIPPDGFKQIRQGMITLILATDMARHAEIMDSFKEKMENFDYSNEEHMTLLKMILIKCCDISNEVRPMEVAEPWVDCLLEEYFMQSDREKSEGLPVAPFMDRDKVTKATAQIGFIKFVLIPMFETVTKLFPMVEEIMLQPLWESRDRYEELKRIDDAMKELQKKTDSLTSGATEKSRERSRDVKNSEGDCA

`CCc1cnc2c(c1)CCN2C(=O)c1cc2[nH]c(=O)c3nnc(CC4CC4)n3c2cc1C` (as salt: hydrochloride) [Example 6, 1-(cyclopropylmethyl)-7-[(5-ethyl-2,3-dihydro-11′-pyrrolo[2,3-b]pyridin-1-yl)carbonyl]-8-methyl[1,2,4]triazolo[4,3-a]quinoxalin-4(5H)-one dihydrochloride] showed a melting point of 173 to 175 °C.
With `Cc1cc2c(cc1C(=O)N1CCc3cc(Br)cnc31)[nH]c(=O)c1cnc([C@@H]3CCC[C@@H]3O)n12` (racemic) [Example 5, 7-[(5-bromo-2,3-dihydro-1H-pyrrolo[2,3-b]pyridin-1-yl)carbonyl]-1-(cis-2-hydroxycyclopentyl)-8-methylimidazo[1,5-a]quinoxalin-4(5H)-one] the IC50 (PDE9) was 62 nM and the melting point was 296 to 303 °C.
With `COCc1cc2c(cc1C(=O)N1CCc3cc(C)cnc31)[nH]c(=O)c1cnc(C3CCOC3)n12` (single isomer, unassigned) [Example 25(a)] the IC50 (PDE9) was 62 nM.
In the case of `Cc1cnc2c(c1)CCN2C(=O)c1cc2[nH]c(=O)c3cnc(C4CCOC4)n3c2cc1C` (single isomer, unassigned) [Example 26(a)], the IC50 (PDE9) is reported as 152 nM.
`Cc1cnc2c(c1)CCN2C(=O)c1cc2[nH]c(=O)c3cnc(C4CCOC4)n3c2cc1C` (single isomer, unassigned) [Example 26(b)] gave an IC50 (PDE9) of 45 nM.
Compound `COc1cc2c(cn1)N(C(=O)c1cc3[nH]c(=O)c4cnc(C5CCOC5)n4c3cc1C)CC2` (single isomer, unassigned) [Example 27(a)] has an IC50 (PDE9) of 137 nM.
For `CCc1cnc2c(c1)CCN2C(=O)c1cc2[nH]c(=O)c3cnc(C4CCOC4)n3c2cc1C` (single isomer, unassigned) [Example 28(a)], the IC50 (PDE9) was 139 nM.
With `CCc1cnc2c(c1)CCN2C(=O)c1cc2[nH]c(=O)c3cnc(C4CCOC4)n3c2cc1C` (single isomer, unassigned) [Example 28(b)] the IC50 (PDE9) was 47 nM.
`Cc1cc2c(cc1C(=O)N1CCc3cc(Br)cnc31)[nH]c(=O)c1cnc(C3CCOC3)n12` (single isomer, unassigned) [Example 29(a)] showed an IC50 (PDE9) of 24 nM.
For `Cc1cc2c(cc1C(=O)N1CCc3cc(F)c(F)cc31)[nH]c(=O)c1cnc(C3CCOC3)n12` (single isomer, unassigned) [Example 30(a)], the IC50 (PDE9) was 38 nM.
With `Cc1cc2c(cc1C(=O)N1Cc3c(F)ccc(F)c3C1)[nH]c(=O)c1cnc(C3CCOC3)n12` (single isomer, unassigned) [Example 39(a)] the IC50 (PDE9) was 52 nM.
Compound `Cc1cc2c(cc1C(=O)N1Cc3c(F)ccc(F)c3C1)[nH]c(=O)c1cnc(C3CCOC3)n12` (single isomer, unassigned) [Example 39(b)] has an IC50 (PDE9) of 14 nM.
For `CCc1cnc2c(c1)CCN2C(=O)c1cc2[nH]c(=O)c3cnc(C4CCOC4)n3c2cc1COC` (single isomer, unassigned) [Example 40(a)], the IC50 (PDE9) was 77 nM.
In the case of `CCc1cnc2c(c1)CCN2C(=O)c1cc2[nH]c(=O)c3cnc(C4CCOC4)n3c2cc1COC` (single isomer, unassigned) [Example 40(b)], the IC50 (PDE9) is reported as 16 nM.
In the case of `COCc1cc2c(cc1C(=O)N1CCc3cc(Br)cnc31)[nH]c(=O)c1cnc(C3CCOC3)n12` (single isomer, unassigned) [Example 43(a)], the IC50 (PDE9) is reported as 25 nM.
In the case of `COCc1cc2c(cc1C(=O)N1Cc3c(F)ccc(F)c3C1)[nH]c(=O)c1cnc(C3CCOC3)n12` (single isomer, unassigned) [Example 45(a)], the IC50 (PDE9) is reported as 26 nM.
`COCc1cc2c(cc1C(=O)N1CCc3cc(OC)ncc31)[nH]c(=O)c1cnc(C3CCOC3)n12` (single isomer, unassigned; (-)) [Example 4(a), (−)-7-[(5-methoxy-2,3-dihydro-1H-pyrrolo[2,3-c]pyridin-1-yl)carbonyl]-8-(methoxymethyl)-1-(tetrahydrofuran-3-yl)imidazo[1,5-a]quinoxalin-4(5H)-one dihydrochloride] gave an IC50 (PDE9) of 62 nM.
With `O=C(c1cc2[nH]c(=O)c3cnc(C4CCOCC4)n3c2cc1OCC1CCOC1)N1CCc2cc(Br)cnc21` (centres unmarked) [Example 1, 7-[(5-bromo-2,3-dihydro-1H-pyrrolo[2,3-b]pyridin-1-yl)carbonyl]-8-(tetrahydrofuran-3-ylmethoxy)-1-(tetrahydro-2H-pyran-4-yl)imidazo[1,5-a]quinoxalin-4(5H)-one] the IC50 (PDE9) was 3.5 nM and the melting point was 321 to 324 °C (dec.).
`COc1cc2c(cn1)N(C(=O)c1cc3[nH]c(=O)c4cnc(C5CCOCC5)n4c3cc1F)CC2` [Example 2, 8-fluoro-7-[(5-methoxy-2,3-dihydro-1H-pyrrolo[2,3-c]pyridin-1-yl)carbonyl]-1-(tetrahydro-2H-pyran-4-yl)imidazo[1,5-a]quinoxalin-4(5H)-one] gave an IC50 (PDE9) of 51 nM and a melting point of 275 to 277 °C.
`COc1cc2c(cn1)N(C(=O)c1cc3[nH]c(=O)c4cnc(C5CCCOC5)n4c3cc1C)CC2` (centres unmarked) [Example 3, 7-[(5-methoxy-2,3-dihydro-1H-pyrrolo[2,3-c]pyridin-1-yl)carbonyl]-8-methyl-1-(tetrahydro-2H-pyran-3-yl)imidazo[1,5-a]quinoxalin-4(5H)-one] gave an IC50 (PDE9) of 22 nM and a melting point of 297 to 299 °C.
`CCc1cnc2c(c1)CCN2C(=O)c1cc2[nH]c(=O)c3nnc(CC4CC4)n3c2cc1C` [Example 6, 1-(cyclopropylmethyl)-7-[(5-ethyl-2,3-dihydro-11′-pyrrolo[2,3-b]pyridin-1-yl)carbonyl]-8-methyl[1,2,4]triazolo[4,3-a]quinoxalin-4(5H)-one dihydrochloride] gave an IC50 (PDE9) of 64 nM.
For `Cc1cc2c(cc1C(=O)N1c3ccc(Cl)cc3CC1C)[nH]c(=O)c1nnc(C3CCOCC3)n12.Cl` (centres unmarked) [Example 7], the IC50 (PDE9) was 2.1 nM and the melting point was 324 to 326 °C.
Compound `COC1CC(c2nnc3c(=O)[nH]c4cc(C(=O)N5CCc6cc(Cl)ccc65)c(C)cc4n23)C1.Cl` (centres unmarked) [Example 8] has an IC50 (PDE9) of 2.8 nM and a melting point of 200 to 202 °C.
With `COCC1Cc2cc(Cl)ccc2N1C(=O)c1cc2[nH]c(=O)c3nnc(C4CCOCC4)n3c2cc1C` (centres unmarked) [Example 9] the IC50 (PDE9) was 1.3 nM.
`Cl.O=C(c1cc2[nH]c(=O)c3cnc(C4CCOCC4)n3c2cc1OCC1CCOC1)N1CCc2cc(F)ccc21` (centres unmarked) [Example 10] gave an IC50 (PDE9) of 4.5 nM and a melting point of 177 to 180 °C.
`Cc1cc2c(cc1C(=O)N1Cc3cccc(CN(C)C)c3C1)[nH]c(=O)c1cnc(C3CCOCC3)n12` [Example 11] showed an IC50 (PDE9) of 31 nM.
With `O=C(c1cc2[nH]c(=O)c3cnc(C4CCOCC4)n3c2cc1F)N1CCc2cc(Cl)ccc21` [Example 12] the IC50 (PDE9) was 3.6 nM.
For `CCc1cnc2c(c1)CCN2C(=O)c1cc2[nH]c(=O)c3cnc(C4CCOCC4)n3c2cc1C` [Example 13], the IC50 (PDE9) was 14 nM and the melting point was 331 to 333 °C.
With `COCc1cccc2c1CN(C(=O)c1cc3[nH]c(=O)c4cnc(C5CCOCC5)n4c3cc1C)C2` [Example 14] the IC50 (PDE9) was 14 nM.
For `COC1CC(c2nnc3c(=O)[nH]c4cc(C(=O)N5CCc6cc(Br)ccc65)c(C)cc4n23)C1.Cl` (centres unmarked) [Example 15], the IC50 (PDE9) was 2.8 nM and the melting point was 188 to 189 °C.
`CCc1cc2c(cc1C(=O)N1CCc3cc(Cl)ccc31)[nH]c(=O)c1nnc(CC3CC3)n12` [Example 16] showed an IC50 (PDE9) of 3.3 nM.
In the case of `CCc1cc2c(cc1C(=O)N1CCc3cc(F)ccc31)[nH]c(=O)c1nnc(CC3CC3)n12` [Example 17], the IC50 (PDE9) is reported as 8.5 nM.
In the case of `CCc1cc2c(cc1C(=O)N1CCc3cc(Br)cnc31)[nH]c(=O)c1nnc(CC3CC3)n12` [Example 18], the IC50 (PDE9) is reported as 5.4 nM.
With `COc1cc2c(cn1)N(C(=O)c1cc3[nH]c(=O)c4cnc(C5CCOCC5)n4c3cc1Cl)CC2` [Example 21] the IC50 (PDE9) was 22 nM and the melting point was 314 to 316 °C (dec.).
`Cc1cc2c(cc1C(=O)N1CCc3cc(F)ccc31)[nH]c(=O)c1cnc([C@@H]3CCC[C@@H]3O)n12` [Example 22] showed an IC50 (PDE9) of 56 nM and a melting point of 197 to 199 °C.
In the case of `COc1cc2c(cc1C(=O)N1CCc3cc(Br)cnc31)[nH]c(=O)c1cnc(C3CCOCC3)n12` [Example 23], the IC50 (PDE9) is reported as 4.9 nM and the melting point is reported as 316 to 319 °C (dec.).
`Cc1cc2c(cc1C(=O)N1CCc3cc(Br)cnc31)[nH]c(=O)c1nnc(CC3CC3)n12` [Example 24] gave an IC50 (PDE9) of 17 nM and a melting point of 268 to 271 °C.
Work on `CCc1cnc2c(c1)CCN2C(=O)c1cc2[nH]c(=O)c3cnc(C4CCOC4)n3c2cc1C` (centres unmarked) [Example 28] yielded an IC50 (PDE9) of 52 nM.
For `Cc1cc2c(cc1C(=O)N1CCc3cc(Br)cnc31)[nH]c(=O)c1cnc(C3CCOC3)n12` (centres unmarked) [Example 29], the IC50 (PDE9) was 15 nM.
`Cc1cc2c(cc1C(=O)N1CCc3cc(F)c(F)cc31)[nH]c(=O)c1cnc(C3CCOC3)n12` (centres unmarked) [Example 30] showed an IC50 (PDE9) of 11 nM.
Compound `Cc1cc2c(cc1C(=O)N1CC(C)(C)c3cc(Br)cnc31)[nH]c(=O)c1nnc(C3CCOCC3)n12` [Example 33] has an IC50 (PDE9) of 0.81 nM.
`COC1CC(c2nnc3c(=O)[nH]c4cc(C(=O)N5CCc6cc(Br)cnc65)c(C)cc4n23)C1` (centres unmarked) [Example 34] gave an IC50 (PDE9) of 7.5 nM.
`CCc1cc2c(cc1C(=O)N1CCc3cc(Br)cnc31)[nH]c(=O)c1nnc(C3CCC3)n12` [Example 35] gave an IC50 (PDE9) of 19 nM.
Compound `Cc1cc2c(cc1C(=O)N1Cc3c(F)ccc(F)c3C1)[nH]c(=O)c1nnc(C3CCC3)n12` [Example 36] has an IC50 (PDE9) of 53 nM.
With `CCc1cc2c(cc1C(=O)N1Cc3c(F)ccc(F)c3C1)[nH]c(=O)c1nnc(C3CCC3)n12` [Example 37] the IC50 (PDE9) was 53 nM.
`Cc1cc2c(cc1C(=O)N1Cc3c(F)ccc(F)c3C1)[nH]c(=O)c1nnc(CC3CC3)n12` [Example 38] showed an IC50 (PDE9) of 28 nM.
